Measured values taken from US20220087962A1, “COMPOSITIONS AND METHODS FOR TREATING AGE-RELATED DISEASES OR CONDITIONS” (Arizona Board of Regents on Behalf of the University of …, priority 2019, published 2022).
Entries after “also recorded” stand apart in the source; their conditions may differ.

Key:
[1] = test system: C. elegans expressing a 35-unit polyglutamine repeat peptide in body wall muscle; assay: Paralysis in C. elegans expressing a 35-unit polyglutamine repeat peptide in body wall muscle (Huntington's disease model); format: in vivo, Caenorhabditis elegans; settings: 3HAA supplementation; aggregate-prone polyglutamine repeat in body wall muscle
[2] = test system: C. elegans expressing human Aβ1-42 in body wall muscle; assay: Paralysis in C. elegans expressing human Aβ1-42 in body wall muscle (Alzheimer's disease model); format: in vivo, Caenorhabditis elegans; settings: 3HAA supplementation; transgenic Aβ1-42 in body wall muscle
Protocol: It was then tested whether 3HAA would prevent Aβ toxicity in vivo. In C. elegans, transgenic expression of the aggregate-prone 42 amino acid form of Aβ (Aβ1-42) in body wall muscle induces paralysis (Link C D. Proc Natl Acad Sci USA 1995, 92:9368-72). […] Next and as described below, 3HAA will be tested as a treatment for amyloid pathology in a cellular context more relevant to AD.

C. elegans [3] = assay: C. elegans lifespan with 3HAA supplementation; format: in vivo, Caenorhabditis elegans; settings: 3HAA supplementation of worms
Protocol: 3HAA mediates lifespan extension by haao-1 knockdown. 3HAA is red in color. Worms with reduced HAAO turned visibly red with age. Using liquid chromatography-tandem mass spectrometry (LC-MS/MS), it was confirmed that these worms had elevated 3HAA (FIG. 3B). Next, it was assessed whether 3HAA may mediate the benefits of reducing haao-1. Indeed, worms supplemented with 3HAA were long-lived (FIG. 3C), mimicking haao-1 knockdown (FIG. 3D).

C. elegans [4] = assay: Endogenous H2O2 produced by C. elegans in vivo; parameters: species or system Caenorhabditis elegans; settings: 3HAA supplementation
Excerpt: (§1) Superoxide dismutases degrade cellular superoxide to oxygen and H2O2.

[5] = test system: cultured human blood cells; settings: cited from earlier work
hemeoxygenase-1 (HO-1) = settings: human cell culture; cited from earlier work
brains of rats = settings: cited from earlier work
[6] = Direct interaction of 3HAA with H2O2 in vitro; settings: addition of 3HAA in the absence of other media components
Excerpt: as §1

Aβ = Aβ (Homo sapiens, UniProt P05067); settings: buffered media; direct binding to Aβ; cited from earlier work
tau = settings: cultured human neurons; cited from earlier work
brain tissue = settings: cited from earlier work
α-synuclein = α-synuclein (Homo sapiens, UniProt P37840); settings: QA self-assembled fibrils; cited from earlier work

Sequence of Aβ (P05067 672-713 limits assumed): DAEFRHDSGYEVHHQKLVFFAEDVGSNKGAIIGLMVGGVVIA

Compound | paralysis (polyglutamine repeat model) [1] | onset of paralysis (Aβ toxicity) [2] | lifespan (C. elegans [3]) | endogenous H2O2 produced by C. elegans in vivo (C. elegans [4]) | LDL oxidation [5] | expression of hemeoxygenase-1 (HO-1) (hemeoxygenase-1 (HO-1)) | lipid peroxidation (brains of rats) | measureable H2O2 in vitro (direct degradation of H2O2) [6] | Aβ misfolding/aggregation in vitro (Aβ) | tau phosphorylation (tau) | in vivo lipid peroxidation in brain tissue (brain tissue) | seeding of α-synuclein aggregation (α-synuclein)
Nc1c(O)cccc1C(=O)O [3HAA, 3-hydroxyanthranilic acid] | delays paralysis | delayed onset of paralysis; also recorded: delays paralysis; also recorded: delayed Aβ pathology | long-lived; also recorded: extends lifespan; also recorded: robustly extended lifespan | limited endogenous H2O2; also recorded: reduces H2O2 produced by C. elegans in vivo | prevents LDL oxidation | induces expression of the antioxidant hemeoxygenase-1 (HO-1) | prevents | reduced measureable H2O2; also recorded: directly breaks down H2O2; also recorded: directly degrades H2O2; also recorded: direct degradation of hydrogen peroxide | prevents Aβ aggregation; also recorded: prevents Aβ misfolding through direct binding; also recorded: preventing misfolding and aggregation |  |  | 
O=C(O)c1cccnc1C(=O)O [QA, quinolinic acid] |  |  |  |  |  |  |  |  |  | drives tau phosphorylation | induces in vivo lipid peroxidation in brain tissue | seed and accelerate aggregation of α-synuclein; also recorded: seeding aggregation of α-synuclein
